Columns and labels:
[1] = target: T1, Angiotensin-converting enzyme (Oryctolagus cuniculus, UniProt P12822); test: biochemical; type: tissue-based, Lung;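 further: enzymatic inhibition of angiotensin-converting enzyme measured with FAPGG as the substrate; in other assays of this panel Not Active means under 50% inhibition at 10 µM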
T1 sequence (P12822 whole entry): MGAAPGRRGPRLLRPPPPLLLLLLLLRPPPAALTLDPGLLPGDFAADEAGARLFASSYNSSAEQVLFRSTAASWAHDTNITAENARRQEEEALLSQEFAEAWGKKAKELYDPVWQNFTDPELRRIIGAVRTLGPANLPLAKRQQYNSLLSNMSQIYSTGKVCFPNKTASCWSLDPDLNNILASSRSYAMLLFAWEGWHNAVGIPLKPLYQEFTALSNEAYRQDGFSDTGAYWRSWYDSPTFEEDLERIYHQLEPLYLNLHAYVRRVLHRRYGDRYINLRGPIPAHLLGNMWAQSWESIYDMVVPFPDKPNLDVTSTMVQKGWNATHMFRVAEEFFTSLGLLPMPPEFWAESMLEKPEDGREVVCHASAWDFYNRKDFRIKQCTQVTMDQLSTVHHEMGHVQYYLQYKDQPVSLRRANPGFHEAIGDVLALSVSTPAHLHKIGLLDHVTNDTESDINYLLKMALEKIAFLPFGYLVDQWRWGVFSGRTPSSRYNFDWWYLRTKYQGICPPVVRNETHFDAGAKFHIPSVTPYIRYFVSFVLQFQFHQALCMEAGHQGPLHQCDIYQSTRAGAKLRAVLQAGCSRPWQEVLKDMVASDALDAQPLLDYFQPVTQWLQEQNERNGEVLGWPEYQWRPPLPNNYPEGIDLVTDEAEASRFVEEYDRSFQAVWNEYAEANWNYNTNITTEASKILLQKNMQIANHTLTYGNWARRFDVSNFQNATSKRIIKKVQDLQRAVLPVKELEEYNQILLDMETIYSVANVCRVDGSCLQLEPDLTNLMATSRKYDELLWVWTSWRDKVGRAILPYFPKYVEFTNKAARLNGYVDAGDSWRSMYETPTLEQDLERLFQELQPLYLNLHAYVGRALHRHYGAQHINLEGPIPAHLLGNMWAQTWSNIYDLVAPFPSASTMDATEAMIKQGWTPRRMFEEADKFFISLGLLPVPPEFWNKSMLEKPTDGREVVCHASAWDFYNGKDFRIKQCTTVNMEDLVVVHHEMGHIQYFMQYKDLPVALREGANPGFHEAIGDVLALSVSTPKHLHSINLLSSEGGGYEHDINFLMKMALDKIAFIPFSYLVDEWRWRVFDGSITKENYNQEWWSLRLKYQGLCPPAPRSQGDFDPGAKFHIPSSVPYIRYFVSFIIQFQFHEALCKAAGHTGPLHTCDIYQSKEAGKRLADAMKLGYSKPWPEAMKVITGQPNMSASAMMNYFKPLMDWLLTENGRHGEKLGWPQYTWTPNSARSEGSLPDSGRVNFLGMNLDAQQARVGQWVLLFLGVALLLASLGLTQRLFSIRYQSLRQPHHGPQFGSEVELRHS

[2] = target: Acetylcholinesterase (Homo sapiens, UniProt P22303); test: DRUGMATRIX: Acetylcholinesterase enzyme inhibition (substrate: acetylthiocholine); type: cell-based, HEK293; settings: hek293; Not Active = under 50% inhibition at 10 µM
[3] = target: T2, D(4) dopamine receptor (Homo sapiens, UniProt P21917); test: DRUGMATRIX: Dopamine D4.2 radioligand binding (ligand: [3H] Spiperone); type: cell membranes, CHO-K1, Membrane; settings: cho-k1; Not Active = under 50% inhibition at 10 µM
T2 sequence (P21917 whole entry): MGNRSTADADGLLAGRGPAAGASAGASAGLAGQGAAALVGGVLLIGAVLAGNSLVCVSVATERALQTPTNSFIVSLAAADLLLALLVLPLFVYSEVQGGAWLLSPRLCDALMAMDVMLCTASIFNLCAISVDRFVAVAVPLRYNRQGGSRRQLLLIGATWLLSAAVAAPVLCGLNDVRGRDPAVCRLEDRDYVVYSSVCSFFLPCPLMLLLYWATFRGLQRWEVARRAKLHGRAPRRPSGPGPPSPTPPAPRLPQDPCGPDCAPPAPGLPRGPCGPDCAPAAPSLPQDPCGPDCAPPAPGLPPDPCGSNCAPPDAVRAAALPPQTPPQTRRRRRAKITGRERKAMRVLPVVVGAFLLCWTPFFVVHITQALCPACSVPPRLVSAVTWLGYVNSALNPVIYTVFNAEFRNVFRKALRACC

[4] = DRUGMATRIX: Glutamate, Kainate radioligand binding (ligand: [3H] Kainic acid); type: cell membranes, Rattus norvegicus, Wistar, Brain, Membrane; settings: Not Active = under 50% inhibition at 10 µM
[5] = target: Vascular endothelial growth factor receptor 1 (Homo sapiens, UniProt P17948); type: cell-based; settings: huvec; further: in other assays of this panel Not Active means under 50% inhibition at 10 µM
[6] = target: Cannabinoid receptor 1 (Homo sapiens, UniProt P21554); type: cell membranes, Chem-1, Membrane; settings: chem-1; further: in other assays of this panel Not Active means under 50% inhibition at 10 µM
[7] = target: Protein phosphatase 3 catalytic subunit alpha (Homo sapiens, UniProt Q08209); parameters: species or system Escherichia coli;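 further: inhibition of calcineurin (PP2B) enzyme activity, measured with DiFMUP as the substrate; in other assays of this panel Not Active means under 50% inhibition at 10 µM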
[8] = target: T3, Cytochrome P450 1A2 (Homo sapiens, UniProt P05177); settings: bti-tn-5b1-4; further: in other assays of this panel Not Active means under 50% inhibition at 10 µM
T3 sequence (P05177 whole entry): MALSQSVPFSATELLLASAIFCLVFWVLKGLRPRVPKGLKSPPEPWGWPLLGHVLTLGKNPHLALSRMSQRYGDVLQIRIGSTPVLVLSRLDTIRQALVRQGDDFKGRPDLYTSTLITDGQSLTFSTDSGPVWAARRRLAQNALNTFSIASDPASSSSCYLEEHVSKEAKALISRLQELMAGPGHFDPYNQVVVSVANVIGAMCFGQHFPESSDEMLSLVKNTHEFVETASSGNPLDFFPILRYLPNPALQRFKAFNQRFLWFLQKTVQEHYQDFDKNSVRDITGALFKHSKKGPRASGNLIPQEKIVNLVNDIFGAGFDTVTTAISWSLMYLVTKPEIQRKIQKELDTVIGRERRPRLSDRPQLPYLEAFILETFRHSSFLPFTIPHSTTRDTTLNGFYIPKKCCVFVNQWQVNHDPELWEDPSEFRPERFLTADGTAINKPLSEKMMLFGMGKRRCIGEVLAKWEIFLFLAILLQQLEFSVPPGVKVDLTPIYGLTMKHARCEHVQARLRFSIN

Vascular endothelial growth factor receptor 1, sequence (P17948 whole entry): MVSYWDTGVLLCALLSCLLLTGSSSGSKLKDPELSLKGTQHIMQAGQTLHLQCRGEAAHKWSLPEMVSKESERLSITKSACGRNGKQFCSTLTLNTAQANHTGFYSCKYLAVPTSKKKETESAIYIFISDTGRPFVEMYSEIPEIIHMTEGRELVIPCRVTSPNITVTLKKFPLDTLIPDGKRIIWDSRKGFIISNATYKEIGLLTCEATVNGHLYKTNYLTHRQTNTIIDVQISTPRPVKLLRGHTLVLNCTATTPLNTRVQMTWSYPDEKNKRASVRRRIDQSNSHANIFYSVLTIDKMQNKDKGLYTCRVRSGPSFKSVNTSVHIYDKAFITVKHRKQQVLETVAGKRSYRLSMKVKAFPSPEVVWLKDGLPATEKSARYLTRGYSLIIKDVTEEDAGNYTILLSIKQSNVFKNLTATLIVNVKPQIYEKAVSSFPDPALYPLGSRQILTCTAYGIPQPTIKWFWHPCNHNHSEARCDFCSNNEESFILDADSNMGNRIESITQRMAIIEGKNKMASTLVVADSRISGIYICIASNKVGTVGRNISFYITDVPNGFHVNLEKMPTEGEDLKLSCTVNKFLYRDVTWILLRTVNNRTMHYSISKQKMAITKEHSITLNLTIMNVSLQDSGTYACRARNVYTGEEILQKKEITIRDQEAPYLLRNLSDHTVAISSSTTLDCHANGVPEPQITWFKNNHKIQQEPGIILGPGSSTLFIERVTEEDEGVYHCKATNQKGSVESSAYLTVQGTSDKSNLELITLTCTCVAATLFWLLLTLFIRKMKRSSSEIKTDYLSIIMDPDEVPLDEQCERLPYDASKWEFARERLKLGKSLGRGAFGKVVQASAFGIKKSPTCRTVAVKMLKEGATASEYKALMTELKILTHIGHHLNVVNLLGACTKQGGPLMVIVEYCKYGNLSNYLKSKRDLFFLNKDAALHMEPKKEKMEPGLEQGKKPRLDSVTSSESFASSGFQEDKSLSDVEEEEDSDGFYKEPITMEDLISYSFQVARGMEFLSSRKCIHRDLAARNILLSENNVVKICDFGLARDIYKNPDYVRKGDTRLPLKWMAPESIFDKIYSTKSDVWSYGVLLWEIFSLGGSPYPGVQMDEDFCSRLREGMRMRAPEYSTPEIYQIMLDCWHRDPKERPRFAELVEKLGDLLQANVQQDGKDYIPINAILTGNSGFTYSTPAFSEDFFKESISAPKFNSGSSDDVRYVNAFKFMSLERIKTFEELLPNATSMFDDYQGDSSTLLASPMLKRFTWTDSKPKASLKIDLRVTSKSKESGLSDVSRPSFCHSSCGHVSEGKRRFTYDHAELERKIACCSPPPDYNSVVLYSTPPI
Cannabinoid receptor 1, sequence (P21554 whole entry): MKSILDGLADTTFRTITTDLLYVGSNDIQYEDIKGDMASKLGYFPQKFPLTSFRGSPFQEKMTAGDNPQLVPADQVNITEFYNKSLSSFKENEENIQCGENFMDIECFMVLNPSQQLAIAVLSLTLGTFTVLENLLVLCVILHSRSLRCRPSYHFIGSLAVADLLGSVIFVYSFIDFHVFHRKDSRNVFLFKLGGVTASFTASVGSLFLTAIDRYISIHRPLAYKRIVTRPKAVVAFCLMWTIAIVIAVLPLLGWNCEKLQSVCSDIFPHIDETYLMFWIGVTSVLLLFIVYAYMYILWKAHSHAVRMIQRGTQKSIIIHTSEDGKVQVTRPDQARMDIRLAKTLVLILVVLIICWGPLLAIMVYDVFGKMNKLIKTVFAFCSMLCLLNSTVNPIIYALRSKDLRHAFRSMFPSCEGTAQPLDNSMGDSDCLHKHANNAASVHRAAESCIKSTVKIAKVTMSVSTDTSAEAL
Acetylcholinesterase, sequence (P22303 whole entry): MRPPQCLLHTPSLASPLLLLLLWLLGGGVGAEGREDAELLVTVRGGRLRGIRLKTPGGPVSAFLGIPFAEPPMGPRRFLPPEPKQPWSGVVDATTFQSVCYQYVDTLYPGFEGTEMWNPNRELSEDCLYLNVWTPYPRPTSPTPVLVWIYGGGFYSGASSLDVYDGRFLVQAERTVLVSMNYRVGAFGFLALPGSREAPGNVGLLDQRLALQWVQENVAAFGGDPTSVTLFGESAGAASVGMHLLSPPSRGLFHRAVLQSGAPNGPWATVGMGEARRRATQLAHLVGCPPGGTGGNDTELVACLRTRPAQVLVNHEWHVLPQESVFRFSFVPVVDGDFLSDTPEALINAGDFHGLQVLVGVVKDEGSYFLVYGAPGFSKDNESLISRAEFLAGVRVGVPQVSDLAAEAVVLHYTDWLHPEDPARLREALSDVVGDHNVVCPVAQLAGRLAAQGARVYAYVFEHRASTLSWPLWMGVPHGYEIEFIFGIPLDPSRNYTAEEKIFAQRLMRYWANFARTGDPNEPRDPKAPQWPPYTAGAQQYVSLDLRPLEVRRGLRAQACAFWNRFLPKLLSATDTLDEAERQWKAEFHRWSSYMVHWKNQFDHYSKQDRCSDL

OC[C@H]1O[C@@H]2O[C@H]3[C@H](O)[C@@H](O)[C@@H](O[C@H]4[C@H](O)[C@@H](O)[C@@H](O[C@H]5[C@H](O)[C@@H](O)[C@@H](O[C@H]6[C@H](O)[C@@H](O)[C@@H](O[C@H]7[C@H](O)[C@@H](O)[C@@H](O[C@H]8[C@H](O)[C@@H](O)[C@@H](O[C@H]1[C@H](O)[C@H]2O)O[C@@H]8CO)O[C@@H]7CO)O[C@@H]6CO)O[C@@H]5CO)O[C@@H]4CO)O[C@@H]3CO [BETADEX]
Not Active: IC50 [1] | IC50 [2] | IC50 [3] | IC50 [4] | Ki [4] | IC50 [5] | IC50 [6] | IC50 [7] | IC50 [8] | Ki [8]

O=C(O)CO [GLYCOLIC ACID]
Not Active: IC50 [1] | IC50 [2] | IC50 [3] | IC50 [4] | Ki [4] | IC50 [5] | IC50 [6] | IC50 [7] | IC50 [8] | Ki [8]

COc1ccc(Cl)cc1C(=O)NCCc1ccc(S(=O)(=O)NC(=O)NC2CCCCC2)cc1 [GLYBURIDE]
Not Active: IC50 [1] | IC50 [2] | IC50 [3] | IC50 [4] | Ki [4] | IC50 [5] | IC50 [6] | IC50 [7] | IC50 [8] | Ki [8]

CCO [ALCOHOL]
Not Active: IC50 [1] | IC50 [2] | IC50 [3] | IC50 [4] | Ki [4] | IC50 [5] | IC50 [6] | IC50 [7] | IC50 [8] | Ki [8]

CC(C)(c1ccc(O)cc1)c1ccc(O)cc1 [BISPHENOL A]
Not Active: IC50 [1] | IC50 [2] | IC50 [3] | IC50 [4] | Ki [4] | IC50 [5] | IC50 [6] | IC50 [7] | IC50 [8] | Ki [8]

CC12CCC(CC1=O)C2(C)C (stereo not given) [CAMPHOR]
Not Active: IC50 [1] | IC50 [2] | IC50 [3] | IC50 [4] | Ki [4] | IC50 [5] | IC50 [6] | IC50 [7] | IC50 [8] | Ki [8]

O=C(O)c1ccccc1 [BENZOIC ACID]
Not Active: IC50 [1] | IC50 [2] | IC50 [3] | IC50 [4] | Ki [4] | IC50 [5] | IC50 [6] | IC50 [7] | IC50 [8] | Ki [8]

Oc1ncnc2[nH]ncc12 [ALLOPURINOL]
Not Active: IC50 [1] | IC50 [2] | IC50 [3] | IC50 [4] | Ki [4] | IC50 [5] | IC50 [6] | IC50 [7] | IC50 [8] | Ki [8]

NC(=O)CN1CCCC1=O
Not Active: IC50 [1] | IC50 [2] | IC50 [3] | IC50 [4] | Ki [4] | IC50 [5] | IC50 [6] | IC50 [7] | IC50 [8] | Ki [8]

C=CCO [ALLYL ALCOHOL]
Not Active: IC50 [1] | IC50 [2] | IC50 [3] | IC50 [4] | Ki [4] | IC50 [5] | IC50 [6] | IC50 [7] | IC50 [8] | Ki [8]

CCN1CCN(C(=O)N[C@@H](C(=O)N[C@@H]2C(=O)N3[C@@H]2SC(C)(C)[C@@H]3C(=O)O)c2ccccc2)C(=O)C1=O [PIPERACILLIN]
Not Active: IC50 [1] | IC50 [2] | IC50 [3] | IC50 [4] | Ki [4] | IC50 [5] | IC50 [6] | IC50 [7] | IC50 [8] | Ki [8]

CCCCCCNC(=O)n1cc(F)c(=O)[nH]c1=O [CARMOFUR]
Not Active: IC50 [1] | IC50 [2] | IC50 [3] | IC50 [4] | Ki [4] | IC50 [5] | IC50 [6] | IC50 [7] | IC50 [8] | Ki [8]
